Here are results for one substance from patent publication US20240018470A1, “METHOD OF MANIPULATING PLURIPOTENCY IN CELLS” (YALE UNIVERSITY, priority 2022, published 2024).

The series relates to Xenopus embryos. In words: Whole mount in situ hybridization for germ layer and pluripotency markers. Format: in vivo, Xenopus tropicalis. An excerpt: In order to generate a full-length antisense probe for X. tropicalis kcnh6, kcnh6 cDNA was cloned from stage 45 tadpole whole mRNA using primers […] ID NO:10) and […] ID NO:11) (XM_012952904.1). It was noted that kcnh6 had been misannotated as kcnh2 in the v7.1 model of the X. tropicalis genome (The present study used NCBI Annotation XP_012808358.2 to identify KCNH6). […] GRPs were dissected post fixation and prior to dehydration to detect dandy. To detect putative gene expression in the prospective endoderm (mixer, vegT, kcnh6) gastrula stage embryos were bisected to facilitate better probe access. Briefly, whole mount in situ hybridization of digoxigenin-labeled antisense probes was performed overnight, the labelled embryos were then washed, incubated with anti-digoxigenin-AP Fab fragments (Roche 11093274910), and signal was detected using BM-purple (Roche 11442074001). Normal embryonic medium is 1/9× modified Ringer's (MR) containing 11 mM NaCl, 0.2 mM KCl, 0.2 mM CaCl2), 0.1 mM Mg2Cl and 0.55 mM HEPES. […] For extracellular K^+ manipulations, the KCl concentration in 1/9×MR was modified from 0.2 mM (normal) to 20 mM (high) or 0 mM (low). […] For rapamycin, the present study created a standard stock solution of 50 mg/ml in DMSO. The stock solution was diluted 1:2500 in the appropriate embryonic media (final 20 μg/ml). […] In experiments where embryos were evaluated for phenotypes and scored (gastrulation, left-right patterning, in situ hybridizations) the present study carried out three to five biological replicates and Fisher's exact test to evaluate statistical significance. The animal cap experiment was performed twice with a total score of four to eight animal caps per experiment. […] For whole cell electrophysiological recordings, three to five embryos (two cells each) were examined for their membrane potential and statistical significance was tested by student's t-test. Graphs were designed using GraphPad Prism software. Models were created with BioRender.com.

Consider “kcnh6 MO: kcnh6 translation blocking morpholino oligonucleotide, 5′-GGTCCTCGAAGTTTAGGATAAACAT-3′, SEQ ID NO:1 (all phosphorodiamidate morpholino (PMO))”, for which the “embryos with myf5 lost” value (kcnh6 depleted embryos treated only with DMSO) stood at 35±5%. For the setting “kcnh6 depleted embryos treated with DMSO”, the “embryos with absent ectodermin” value was 51±6%.
